From US20210323908A1, “PROCESS FOR PRODUCING TCA CYCLE INTERMEDIATE CONJUGATES” (IMBRIA PHARMACEUTICALS, INC., priority 2020, published 2021)

Legend:
Assay type in all cases: physicochemical
[1] = Solubility of the Type A crystal polymorph (stated as a conclusion, no method given); details: solid crystal polymorph identified as Type A
[2] = Stability of the Type A crystal polymorph (stated as a conclusion, no method given); details: solid crystal polymorph identified as Type A
[3] = Decomposition of the product in hot water, observed during work-up; details: in water at 70-80° C.
Procedure: The reaction mixtures were filtered to remove solvents. The wet cake was charged to a reactor. […] 6 kg of MS001 Silica Thiol was added to the filtrate at about 60-70° C., stirred for 1 hour, and filtered through a pad of fresh Celite.
A total of 20 kg of a compound of Formula (X) was made from 56.6 kg of a compound of Formula (IV), with 98.0% and a 73.5% yield. The yield of the manufacture is consistent to the Lab batch.

Compound: N[C@@H](COC(=O)CCC(=O)O)C(=O)O [Formula (X)]
- solubility of the solid crystal polymorph Type A [1]: soluble
- stability of the solid crystal polymorph Type A [2]: highly stable
- stability in water at elevated temperature [3]: could be decomposed in water
